# In publication PMC9090738, “An anti-diabetic drug targets NEET (CISD) proteins through destabilization of their [2Fe-2S] clusters” (Communications Biology, 2022):
# T1: mNT (mitoNEET) (Homo sapiens, UniProt Q9NZ45)
# T1 construct: gene CISD1; soluble cytosolic part, residues 33-108; pET-28a+, E. coli BL21-RIL, Ni-agarose and size exclusion; [2Fe-2S] holo form; homodimer
# T1 sequence (Q9NZ45 33-108): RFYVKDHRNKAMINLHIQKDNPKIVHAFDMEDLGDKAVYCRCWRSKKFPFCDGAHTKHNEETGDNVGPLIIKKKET
# T2: NAF-1 (Homo sapiens, UniProt Q8N5K1)
# T2 construct: gene CISD2; soluble cytosolic part, residues 57-135; pET-28a+, E. coli BL21-RIL, Ni-agarose and size exclusion; [2Fe-2S] holo form; homodimer
# T2 sequence (Q8N5K1 57-135): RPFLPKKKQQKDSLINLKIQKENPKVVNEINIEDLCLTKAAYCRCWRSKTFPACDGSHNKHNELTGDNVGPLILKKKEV
# Tests used:
# mNT (mitoNEET) = molecular target: T1, mNT (mitoNEET); test: isothermal titration calorimetry, one-site model; assay type: binding
# NAF-1 = molecular target: T2, NAF-1; test: isothermal titration calorimetry, one-site model; assay type: binding
# [1] = molecular target: the molecule itself; test: crystal structure; co-crystallised with the small molecule M1 (3.3 mM, 5% DMSO), sitting drop, 32% PEG-3000, 100 mM Tris-HCl pH 8.0, 100 mM NaCl, 20 °C; two molecules (mNT) or two dimers (NAF-1) in the asymmetric unit
Kd (mNT (mitoNEET)) [µM],Kd (NAF-1) [µM],Molecule,binding result [1]
5.93 ± 0.53,7.2 ± 0.99,O=C(Nc1scc(C2CCc3ccccc3C2)c1C(=O)O)c1ccccc1 (racemic) [M1],–
–,–,"mitoNEET soluble part (residue 33-108) (domain or fragment, human, UniProt Q9NZ45 33-108, looked up, mitoNEET (mNT), human NEET protein, soluble part, residues 33-108; Each monomer carries a [2Fe-2S] cluster; Crystallised with the small molecule M1; also called mNT; source: Escherichia coli BL21-RIL, purified (Ni-agarose, size exclusion chromatography)) RFYVKDHRNKAMINLHIQKDNPKIVHAFDMEDLGDKAVYCRCWRSKKFPFCDGAHTKHNEETGDNVGPLIIKKKET",binds
–,–,"NAF-1 soluble part (residue 57-135) (domain or fragment, human, UniProt Q8N5K1 57-135, looked up, NAF-1, human NEET protein encoded by CISD2, soluble part, residues 57-135; Each monomer carries a [2Fe-2S] cluster; Crystallised with the small molecule M1; source: Escherichia coli BL21-RIL, purified (Ni-agarose, size exclusion chromatography)) RPFLPKKKQQKDSLINLKIQKENPKVVNEINIEDLCLTKAAYCRCWRSKTFPACDGSHNKHNELTGDNVGPLILKKKEV",binds
